Three compounds from US20050203063A1, “Proteasome pathway inhibitors and related methods” (priority 2003, published 2005) can be followed below.

In one experiment the test system is 26S proteasomes. Kind of experiment: Degradation of UbSic1 by purified 26S proteasomes. Format: biochemical, S. cerevisiae. As to conditions: concentrations as low as 10 μM. How it is done:
FIG. 2. […] (A) Degradation of UbSic1. Purified 26S proteasomes were preincubated in the presence or absence of test compounds. UbSic1 was then added, and degradation assayed as described (6). Py mock refers to the pyridine solvent in which C23 was dissolved which was marginally inhibitory, unlike the 50% DMSO vehicle used for other test compounds. (B) Deubiquitination of UbSic1. […] UbSic1 was then added, and deubiquitination was assayed as described (6). (C) Titration curve with varying concentrations of C92 to determine half-maximal inhibition of deubiquitination. (D) C92 inhibits binding of UbSic1 to 26S proteasomes. Purified 26S proteasomes immobilized on anti-Flag beads were incubated with UbSic1 in the presence or absence of C92 as described (6). Following binding, beads were washed and analyzed by immunoblotting with anti-Sic1 polyclonal serum. (E) Binding of UbSic1 to the polyUb binding proteins Rpn10 and Rad23 is inhibited by C92. Recombinant Gst-Rpn10 and Gst-Rad23 (1 μg each) were immobilized on glutathione sepharose beads and then incubated with UbSic1 in the presence or absence of C92. Following binding, beads were washed and analyzed by immunoblotting. (F) C92 interacts with multiUb chains. Equivalent amounts (5 μg) of purified Gst, Gst-fusion protein or multiUb chains were incubated with C92 or C1 before being loaded on a 5% native polyacryamide gel. Electrophoresis was performed as described (33). (G) C92 and C59 interact specifically with K48-linked Ub on native gels. Ub (16 μM), K48-linked diUb (8 μM), or tetraUb chains (8 μM) were preincubated with a two fold-molar excess (monoUb and diUb), or equivalent amounts (tetraUb) of test compounds before being resolved on native gels as in (G). Tetra K29Ub, K48Ub, and K63Ub refer to tetraubiquitin chains wherein the ubiquitins are linked via K29, K48, or K63.
Sic1 is a Cdk inhibitor in Saccharomyces cerevisiae that must be degraded for cells to enter S-phase (9-11). […]

For experiment [1], the system named is cyclin-luciferase (cyc-luc) turnover, APC/C activation. Put plainly: cyc-luc turnover in interphase Xenopus extracts induced to enter mitosis by non-degradable cyclin B. Format: biochemical. As to conditions: 200 μM compound; added to interphase extracts then induced to enter mitosis; average of three measurements. How it is done: FIG. 1. Functional classification of inhibitors. Compounds that scored in the initial screen were reacquired as dry powders and retested in Xenopus extracts in 4 assays at 200 μM concentration (32) as described (6). […] (A) Compounds and cyclin-luciferase were added to interphase extracts, which were then induced to enter mitosis by addition of non-degradable cyclin B. Percent inhibition of cyc-luc turnover by each compound is coded according to the grayscale shown at the bottom of the figure; specific values are available in Table 1. (B) Extracts were pre-treated with non-degradable cyclin B to allow entry into mitosis prior to addition of test compound and reporter protein. (C) Interphase extracts were treated by addition of recombinant Cdh1 to activate cyc-luc turnover. (D) Interphase extracts were treated with recombinant axin to induce turnover of β-catenin-luciferase.
The “Cmpd” column corresponds to the numbers used in FIG. 1; “Class” refers to the class of inhibitor described in FIG. 1 and the text. Columns A-D show percent inhibition in the four assays described in FIG. 1. (A) Interphase extracts (B) Mitotic extracts (C) Interphase extracts stimulated with Cdh1 (D) Degradation of a β-catenin reporter protein in interphase extracts stimulated with recombinant axin. […] “ID#” refers to the identification number of the inhibitor obtained from the NCI (prefaced by NSC) or Chembridge (prefaced by C).
Extracts were rapidly thawed and diluted to a final concentration of 75% in extract buffer (XB) just prior to assay (XB; 100 mM KCl, 0.1 mM CaCl2, 1 mM MgCl2, 10 mM potassium HEPES, pH 7.7, 50 mM sucrose). Extracts were kept on ice and supplemented with 1 mg/ml bovine ubiquitin (Sigma) unless otherwise stated. Cyc-luc expressed in reticulocyte lysate was diluted 1/200 for most assays. High-throughput screening utilized the bacterially expressed and purified cyclin-luc fusion protein, which was added to extracts at a final concentration of 0.1 μg/ml. To induce entrance into mitosis, cyclin BΔ90 protein was added to a final concentration of 10 μg/ml. For the dose response analysis, inhibitors were purchased from Calbiochem (San Diego, Calif.) and dissolved in DMSO as 10 mM stocks. Cyclin-luciferase and cyclin BΔ90 were mixed with interphase extract and placed on ice. Inhibitors were then added to extracts to yield a final DMSO concentration of 1%. 10 μl aliquots of extract were distributed into 384-well white Cliniplates (Labsystems), and cell cycle progression was initiated by warming the samples to room temperature. After 60 minutes, 30 μl of luciferin reagent (20 mM tricine pH 7.8, 470 μM D-Luciferin [Molecular Probes]), 270 μM Coenzyme A, 0.1 mM EDTA, 33 mM DTT, and 530 μM ATP) was added using a multidrop dispenser (Labsystems). Luminescence was measured on an Analyst plate reader (LJL Biosystems). The values for 3 replicates were averaged. For the dose response analysis, percent inhibition was calculated as 100*(T−M)/(I−M) where T equals the test value for the inhibitor, M equals the value in a mitotic extract lacking inhibitor, and I equals the value in an interphase extract. For certain experiments, methylated ubiquitin was added to interphase extracts at a concentration of 1 mg/ml in the presence or absence of added unmodified ubiquitin (1 mg/ml) used as competitor. Cyclin-luciferase and cyclin BΔ90 were then added. After 60 minutes, the reactions were stopped and analyzed as described above.
Dry compounds were redissolved at 20 mM concentration in DMSO, or a 50:50 water:DMSO mixture in certain cases. These compounds were then diluted ten-fold in XB and mixed thoroughly. For the assay in FIG. 1A, chilled interphase extract was mixed with cyclin BΔ90 (10 μg/ml) and cyc-luc (0.1 μg/ml) in bulk and then 27 μl of extract was pipetted to each well of a chilled 384-well plate.

Each structure is given as a SMILES string.

In the case of `CC(=O)Nc1ccc(SSc2ccc(NC(C)=O)c3cccnc23)c2ncccc12` [Compound 23], the “inhibitory effect on Sic1 (UbSic1) turnover” value (from here on “inhibitory effect on Sic1”) in the experiment with 26S proteasomes is listed as “more modest effect”. In addition, in experiment [1], the “percent inhibition of cyc-luc turnover, (A) Interphase extracts” value (from here on “percent inhibition of cyc-luc turnover”) is recorded as 100%.

`O=S(=O)(O)c1ccc2cc3c(cc2c1)NN(c1ccc(/C=C/c2ccc(N4Nc5cc6ccc(S(=O)(=O)O)cc6cc5N4)cc2S(=O)(=O)O)c(S(=O)(=O)O)c1)N3` [Compound 59]: the “inhibitory effect on Sic1” value with 26S proteasomes is “strong inhibitory effect”. The “percent inhibition of cyc-luc turnover” value in experiment [1] is on record as 97%.

Take `O=C(Nc1ccc(/C=C/c2ccc(NC(=O)c3cc(S(=O)(=O)O)c4cccnc4c3O)cc2S(=O)(=O)O)c(S(=O)(=O)O)c1)c1cc(S(=O)(=O)O)c2cccnc2c1O` [Compound 92]: in the experiment with 26S proteasomes, the “inhibitory effect on Sic1” value was “strong inhibitory effect”. Also, the “percent inhibition of cyc-luc turnover” value in experiment [1] came out at 60%.
